Values quoted from earlier work, collected in patent publication US20230149389A1, “METHODS OF REDUCING MORTALITY IN SUBJECTS SUFFERING FROM AN UNDERLYING DISEASE OR CONDITION BY ADMINISTRATION OF METHYLNALTREXONE” (Bausch Health Ireland Limited, priority 2020, published 2023).

What was measured:
[1] = test system: human dermal endothelial and pulmonary cells; settings: at clinically relevant levels; cited from earlier work
murine model of sepsis = settings: mouse, in vivo; cited from earlier work
[2] = cited from earlier work

| SMILES | angiogenic activity relative to vascular endothelial growth factor [1] | mortality in murine model of sepsis (murine model of sepsis) | incidence rate for MI ([2]; placebo 0%) | incidence rate for cardiovascular events ([2]; placebo 1.12%) |
| --- | --- | --- | --- | --- |
| CN1CC[C@]23c4c5ccc(O)c4O[C@H]2[C@@H](O)C=C[C@H]3[C@H]1C5 [morphine] | 70% | increased mortality |  |  |
| C[C@H]1CN(C[C@H](Cc2ccccc2)C(=O)NCC(=O)O)CC[C@@]1(C)c1cccc(O)c1 [alvimopan] |  |  | 1.30% | 2.60% |
